For test [1], the system named is Klebsiella pneumoniae. In words: Antibacterial activity against Klebsiella pneumoniae MTCC 109 after 24 hr by paper disk diffusion method. The class given is functional. (Agar diffusion results depend on both activity and mobility in agar.)
Test [2] deals with Pseudomonas aeruginosa. As to the kind of experiment: Antibacterial activity against Pseudomonas aeruginosa MTCC 741 after 24 hr by agar streak dilution method. The class given is functional. Particulars: MTCC 741, 24 h.
The subject of test [3] is Escherichia coli. As to the kind of experiment: Antibacterial activity against Escherichia coli MTCC 739 after 24 hr by agar streak dilution method. The class given is functional. Particulars: MTCC 739, 24 h.
Test [4] concerns Staphylococcus aureus. As to the kind of experiment: Antibacterial activity against Staphylococcus aureus MTCC 96 after 24 hr by agar streak dilution method. In kind it is functional. The settings on record: MTCC 96, 24 h.
Test [5] deals with Proteus vulgaris. In words: Antibacterial activity against Proteus vulgaris MTCC 1771 after 24 hr by agar streak dilution method. The class given is functional. Particulars: MTCC 1771, 24 h.
Test [6] concerns Staphylococcus aureus. As to the kind of experiment: Antibacterial activity against Staphylococcus aureus MTCC 96 after 24 hr by paper disk diffusion method. The class given is functional.
For test [7], the system named is Candida albicans. As to the kind of experiment: Antifungal activity against Candida albicans MTCC 183 after 24 hr by paper disk diffusion method. In kind it is functional.
Test [8] has as its system Bacillus cereus. As to the kind of experiment: Antibacterial activity against Bacillus cereus MTCC 619 after 24 hr by paper disk diffusion method. In kind it is functional.
Test [9] relates to Candida albicans. In words: Antifungal activity against Candida albicans MTCC 183 after 48 hr by agar streak dilution method. The class given is functional. Particulars: MTCC 183, 48 h.
Test [10] deals with Salmonella typhi. In words: Antibacterial activity against Salmonella enterica subsp. enterica serovar Typhi MTCC 733 after 24 hr by paper disk diffusion method. The class given is functional.
The subject of test [11] is Escherichia coli. As to the kind of experiment: Antibacterial activity against Escherichia coli MTCC 739 after 24 hr by paper disk diffusion method. In kind it is functional.
The test system of test [12] is Pseudomonas aeruginosa. As to the kind of experiment: Antibacterial activity against Pseudomonas aeruginosa MTCC 741 after 24 hr by paper disk diffusion method. In kind it is functional.
Test [13] concerns Shigella flexneri. In words: Antibacterial activity against Shigella flexneri MTCC 1457 after 24 hr by agar streak dilution method. Particulars: MTCC 1457, 24 h. In kind it is functional.
Test [14] relates to Shigella flexneri. As to the kind of experiment: Antibacterial activity against Shigella flexneri MTCC 1457 after 24 hr by paper disk diffusion method. The class given is functional.
Test [15] concerns Bacillus cereus. In words: Antibacterial activity against Bacillus cereus MTCC 619 after 24 hr by agar streak dilution method. The class given is functional. Particulars: MTCC 619, 24 h.
The test system of test [16] is Aspergillus niger. In words: Antifungal activity against Aspergillus niger MTCC 282 after 48 hr by agar streak dilution method. Particulars: MTCC 282, 48 h. The class given is functional.
The subject of test [17] is Proteus vulgaris. As to the kind of experiment: Antibacterial activity against Proteus vulgaris MTCC 1771 after 24 hr by paper disk diffusion method. In kind it is functional.
Test [18] deals with Salmonella typhi. As to the kind of experiment: Antibacterial activity against Salmonella enterica subsp. enterica serovar Typhi MTCC 733 after 24 hr by agar streak dilution method. The class given is functional. The settings on record: MTCC 733, 24 h.
The subject of test [19] is Aspergillus niger. As to the kind of experiment: Antifungal activity against Aspergillus niger MTCC 282 after 24 hr by paper disk diffusion method. In kind it is functional.
The test system of test [20] is Klebsiella pneumoniae. In words: Antibacterial activity against Klebsiella pneumoniae MTCC 109 after 24 hr by agar streak dilution method. The class given is functional. Particulars: MTCC 109, 24 h.
The test system of test [21] is Proteus vulgaris. As to the kind of experiment: Antibacterial activity against Proteus vulgaris MTCC 1771 at 50 ug/disk after 24 hr by paper disk diffusion method. In kind it is functional. The settings on record: MTCC 1771, 24 h, read-out: IZ.
In test [22] the test system is Shigella flexneri. As to the kind of experiment: Antibacterial activity against Shigella flexneri MTCC 1457 at 50 ug/disc after 24 hr by paper disk diffusion method. The class given is functional. Particulars: MTCC 1457, 24 h, read-out: IZ.
For test [23], the system named is Escherichia coli. In words: microbe, parasite or virus in culture. The settings on record: MTCC 739, 24 h, read-out: IZ.
Description: Antibacterial activity against Escherichia coli MTCC 739 at 50 ug/disk after 24 hr by paper disk diffusion method
Test [24] relates to Pseudomonas aeruginosa. In words: microbe, parasite or virus in culture. Particulars: MTCC 741, 24 h, read-out: IZ.
Description: Antibacterial activity against Pseudomonas aeruginosa MTCC 741 at 50 ug/disk after 24 hr by paper disk diffusion method
Test [25] deals with Klebsiella pneumoniae. As to the kind of experiment: microbe, parasite or virus in culture. Particulars: MTCC 109, 24 h, read-out: IZ.
Description: Antibacterial activity against Klebsiella pneumoniae MTCC 109 at 50 ug/disk after 24 hr by paper disk diffusion method
Test [26] relates to Salmonella typhi. As to the kind of experiment: Antibacterial activity against Salmonella enterica subsp. enterica serovar Typhi MTCC 733 at 50 ug/disk after 24 hr by paper disk diffusion method. In kind it is functional. The settings on record: MTCC 733, 24 h, read-out: IZ.
Test [27] deals with Bacillus cereus. In words: Antibacterial activity against Bacillus cereus MTCC 619 at 50 ug/disk after 24 hr by paper disk diffusion method. In kind it is functional. The settings on record: MTCC 619, 24 h, read-out: IZ.
Test [28] relates to Staphylococcus aureus. As to the kind of experiment: Antibacterial activity against Staphylococcus aureus MTCC 96 at 50 ug/disc after 24 hr by paper disk diffusion method. The settings on record: MTCC 96, 24 h, read-out: IZ.
The subject of test [29] is Candida albicans. In words: Antifungal activity against Candida albicans MTCC 183 at 50 ug/disk after 24 hr by paper disk diffusion method. The class given is functional. The settings on record: MTCC 183, 24 h, read-out: IZ.
For test [30], the system named is Aspergillus niger. In words: Antifungal activity against Aspergillus niger MTCC 282 at 50 ug/disk after 24 hr by paper disk diffusion method. The class given is functional. The settings on record: MTCC 282, 24 h, read-out: IZ.

≈ marks a conversion by molar mass, not a printed value.

As a reminder, the MIC is the lowest concentration found to suppress growth. Turning to `Cn1c(=O)cc(Oc2nc(Nc3ccc(C#N)cc3)nc(NC3CC3)n2)c2ccccc21`, the “inhibition zone (IZ)” value is 11 mm in test [1]; less than 5 mm in [6]; 8 mm in [7]; 11 mm in test [8]; less than 5 mm in [10]; 7 mm in test [11]. Besides, the “inhibition zone (IZ)” value in [12] is given as 6 mm; in [14] it was less than 5 mm; in test [17] it was 8 mm; in test [19] it was 10 mm. For the same molecule, the MIC in test [2], in test [3], in test [4], in test [5], in [9] and in test [13] was 50 µg/mL (≈ 118 µM) in each case. Further, the MIC is 25 µg/mL (≈ 58.8 µM) in test [15], 50 µg/mL (≈ 118 µM) in test [16], 50 µg/mL (≈ 118 µM) in test [18] and 25 µg/mL (≈ 58.8 µM) in test [20].
Turning to `Cn1c(=O)cc(Oc2nc(Nc3ccc(C#N)cc3)nc(NC3CCCCC3)n2)c2ccccc21`, the “inhibition zone (IZ)” value in test [1] is 13 mm; in test [6], 14 mm; in [7], 10 mm; in [8], 10 mm; in [10], less than 5 mm; in test [11], 8 mm. Further, the “inhibition zone (IZ)” value in test [12] is less than 5 mm; in [14] it was 9 mm; in test [17], 7 mm; in [19] it was 9 mm. The MIC was 50 µg/mL (≈ 107 µM) in [2]; 50 µg/mL (≈ 107 µM) in test [3]; 6.25 µg/mL (≈ 13.4 µM) in test [4]; 50 µg/mL (≈ 107 µM) in [5]; 50 µg/mL (≈ 107 µM) in test [9]; 50 µg/mL (≈ 107 µM) in test [13]. In addition, the MIC was 50 µg/mL (≈ 107 µM) in test [15], 50 µg/mL (≈ 107 µM) in [16], 50 µg/mL (≈ 107 µM) in test [18] and 12.5 µg/mL (≈ 26.7 µM) in test [20].
On to `Cn1c(=O)cc(Oc2nc(NCc3ccccc3)nc(Nc3ccc(C#N)cc3)n2)c2ccccc21`, for which the “inhibition zone (IZ)” value in test [1] is 15 mm; in [6], 13 mm; in test [7], less than 5 mm; in test [8], 10 mm; in test [10] it was less than 5 mm; in [11] it was 9 mm. Moreover, the “inhibition zone (IZ)” value is 7 mm in test [12], 6 mm in test [14], less than 5 mm in test [17] and less than 5 mm in test [19]. The minimum inhibitory concentration (MIC) was 50 µg/mL (≈ 105 µM) in test [2]; 50 µg/mL (≈ 105 µM) in test [3]; 12.5 µg/mL (≈ 26.3 µM) in test [4]; 50 µg/mL (≈ 105 µM) in test [5]; more than 50 µg/mL in test [9]; 50 µg/mL (≈ 105 µM) in test [13]. Besides, the MIC is 50 µg/mL (≈ 105 µM) in test [15], more than 50 µg/mL in test [16], 50 µg/mL (≈ 105 µM) in test [18] and 12.5 µg/mL (≈ 26.3 µM) in test [20].
For the molecule `Cn1c(=O)cc(Oc2nc(NCCc3cccs3)nc(Nc3ccc(C#N)cc3)n2)c2ccccc21`, the “inhibition zone (IZ)” value stood at 10 mm in [1]; 15 mm in test [6]; 15 mm in test [7]; 13 mm in test [8]; 12 mm in [10]; 10 mm in test [11]. Moreover, the “inhibition zone (IZ)” value in test [12] was found to be 10 mm; in test [14] it was 14 mm; in test [17], 7 mm; in [19] it was 13 mm. Moreover, the MIC was found to be 50 µg/mL (≈ 101 µM) in test [2]; 50 µg/mL (≈ 101 µM) in [3]; 6.25 µg/mL (≈ 12.6 µM) in test [4]; 50 µg/mL (≈ 101 µM) in test [5]; 25 µg/mL (≈ 50.4 µM) in test [9]; 25 µg/mL (≈ 50.4 µM) in test [13]. Moreover, the MIC in test [15] stood at 25 µg/mL (≈ 50.4 µM); in test [16], 25 µg/mL (≈ 50.4 µM); in test [18], 50 µg/mL (≈ 101 µM); in test [20], 50 µg/mL (≈ 101 µM).
Turning to `COc1ccc2[nH]cc(CCNc3nc(Nc4ccc(C#N)cc4)nc(Oc4cc(=O)n(C)c5ccccc45)n3)c2c1`, the “inhibition zone (IZ)” value in test [1] was 10 mm; in [6], 15 mm; in test [7], 15 mm; in test [8], 13 mm; in test [10], less than 5 mm; in [11] it was 9 mm. Besides, the “inhibition zone (IZ)” value in test [12] is on record as 9 mm; in test [14] it was 12 mm; in test [17], 6 mm; in test [19], 12 mm. Besides, the MIC in [2] was 50 µg/mL (≈ 89.5 µM); in test [3] it was 50 µg/mL (≈ 89.5 µM); in [4] it was 6.25 µg/mL (≈ 11.2 µM); in test [5], 50 µg/mL (≈ 89.5 µM); in [9], 25 µg/mL (≈ 44.8 µM); in test [13] it was 50 µg/mL (≈ 89.5 µM). For the same molecule, the minimum inhibitory concentration (MIC) was determined as 25 µg/mL (≈ 44.8 µM) in [15], 25 µg/mL (≈ 44.8 µM) in test [16], 50 µg/mL (≈ 89.5 µM) in test [18] and 50 µg/mL (≈ 89.5 µM) in test [20].
As for `O=C(O)c1cn(C2CC2)c2cc(N3CCNCC3)c(F)cc2c1=O` [CIPROFLOXACIN], the zone of inhibition at 50 µg/disc in test [21] was 17 mm; in [22], 17 mm; in test [23], 18 mm; in [24], 15 mm; in test [25], 16 mm; in test [26], 16 mm. Besides, the values for the zone of inhibition at 50 µg/disc in test [27] and in test [28] were 16 mm and 17 mm, respectively. The MIC in [2] was 1 µg/mL (≈ 3.02 µM); in test [4], 1 µg/mL (≈ 3.02 µM); in test [5], 1 µg/mL (≈ 3.02 µM); in test [13], not above 3 µg/mL; in test [15], 1 µg/mL (≈ 3.02 µM); in test [18], 1 µg/mL (≈ 3.02 µM). For the same molecule, it took 1 µg/mL (≈ 3.02 µM) to inhibit growth in test [20] (MIC).
On to `CC(=O)N1CCN(c2ccc(OCC3COC(Cn4ccnc4)(c4ccc(Cl)cc4Cl)O3)cc2)CC1` (centres undefined) [KETOCONAZOLE], for which the zone of inhibition at 50 µg/disc was 17 mm in test [29] and 16 mm in test [30]. Besides, the minimum inhibitory concentration (MIC) was 1 µg/mL (≈ 1.88 µM) in test [9] and not above 3 µg/mL in test [16].
